What was measured:
[1] = DRUGMATRIX: Interleukin IL-1 radioligand binding (ligand: [125I] interleukin 1beta); format: cell membranes, Membrane; settings: nih3t3; Not Active = under 50% inhibition at 10 µM
[2] = target: Beta-2 adrenergic receptor (Homo sapiens, UniProt P07550); assay: DRUGMATRIX: Adrenergic beta2 radioligand binding (ligand: [3H] CGP-12177); format: cell membranes, CHO, Membrane; settings: cho; Not Active = under 50% inhibition at 10 µM
[3] = target: Cannabinoid receptor 1 (Homo sapiens, UniProt P21554); format: cell membranes, Membrane; settings: chem-1; further: in other assays of this panel Not Active means under 50% inhibition at 10 µM
Sequence of Cannabinoid receptor 1 (P21554 whole entry): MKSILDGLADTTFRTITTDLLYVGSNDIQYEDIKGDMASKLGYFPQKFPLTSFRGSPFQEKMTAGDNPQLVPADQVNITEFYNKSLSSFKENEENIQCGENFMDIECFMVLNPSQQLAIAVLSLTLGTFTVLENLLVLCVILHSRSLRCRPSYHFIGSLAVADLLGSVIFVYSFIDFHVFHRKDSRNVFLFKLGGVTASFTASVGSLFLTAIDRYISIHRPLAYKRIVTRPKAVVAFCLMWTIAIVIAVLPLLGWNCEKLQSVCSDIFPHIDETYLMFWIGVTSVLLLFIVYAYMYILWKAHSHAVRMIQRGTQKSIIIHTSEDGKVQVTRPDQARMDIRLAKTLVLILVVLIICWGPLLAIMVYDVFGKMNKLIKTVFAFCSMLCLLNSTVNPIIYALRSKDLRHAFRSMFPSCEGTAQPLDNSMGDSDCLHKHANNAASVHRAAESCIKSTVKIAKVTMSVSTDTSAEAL

[4] = target: T1, Amine oxidase [flavin-containing] A (Homo sapiens, UniProt P21397); assay: DRUGMATRIX: Monoamine Oxidase MAO-A enzyme inhibition (substrate: Kynuramine); design: species or system BTI-TN-5B1-4; settings: bti-tn-5b1-4; Not Active = under 50% inhibition at 10 µM
T1 sequence (P21397 whole entry): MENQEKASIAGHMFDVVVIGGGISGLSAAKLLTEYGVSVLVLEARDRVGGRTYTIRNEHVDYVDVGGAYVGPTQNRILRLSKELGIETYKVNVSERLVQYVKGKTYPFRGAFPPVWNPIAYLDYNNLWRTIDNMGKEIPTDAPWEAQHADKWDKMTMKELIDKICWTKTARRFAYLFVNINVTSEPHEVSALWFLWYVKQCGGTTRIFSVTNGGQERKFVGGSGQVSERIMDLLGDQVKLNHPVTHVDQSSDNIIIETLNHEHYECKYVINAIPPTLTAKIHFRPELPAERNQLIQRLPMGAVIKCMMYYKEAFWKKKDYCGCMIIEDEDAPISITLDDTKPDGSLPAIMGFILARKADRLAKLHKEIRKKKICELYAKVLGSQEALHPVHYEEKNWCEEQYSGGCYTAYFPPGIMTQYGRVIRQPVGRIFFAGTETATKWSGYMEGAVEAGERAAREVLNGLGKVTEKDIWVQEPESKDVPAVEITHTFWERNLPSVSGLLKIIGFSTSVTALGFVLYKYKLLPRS

[5] = target: Carbonic anhydrase 2 (Homo sapiens, UniProt P00918); assay: DRUGMATRIX: Carbonic Anhydrase II enzyme inhibition (substrate: 4-Nitrophenyl acetate (4-NPA)); format: tissue-based, Erythrocyte; settings: erythrocyte; Not Active = under 50% inhibition at 10 µM
[6] = target: T2, Muscarinic acetylcholine receptor M2 (Homo sapiens, UniProt P08172); format: cell membranes, CHO-K1, Membrane; settings: cho-k1; further: in other assays of this panel Not Active means under 50% inhibition at 10 µM
T2 sequence (P08172 whole entry): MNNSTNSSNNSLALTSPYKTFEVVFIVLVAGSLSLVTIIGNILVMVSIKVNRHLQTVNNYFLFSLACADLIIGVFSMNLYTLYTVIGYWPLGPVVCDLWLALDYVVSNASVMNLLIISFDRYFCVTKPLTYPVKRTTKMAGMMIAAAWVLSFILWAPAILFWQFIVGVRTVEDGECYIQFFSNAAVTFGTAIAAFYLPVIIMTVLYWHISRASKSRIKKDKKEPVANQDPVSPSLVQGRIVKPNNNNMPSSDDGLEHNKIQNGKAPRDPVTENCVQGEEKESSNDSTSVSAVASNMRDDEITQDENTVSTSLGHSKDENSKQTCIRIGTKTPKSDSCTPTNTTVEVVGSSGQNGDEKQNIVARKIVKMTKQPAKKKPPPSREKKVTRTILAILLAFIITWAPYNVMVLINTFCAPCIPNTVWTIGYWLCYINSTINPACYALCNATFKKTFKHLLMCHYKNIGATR

[7] = target: T3, Vasoactive intestinal polypeptide receptor 1 (Homo sapiens, UniProt P32241); format: cell membranes, Membrane; settings: ht-29; further: in other assays of this panel Not Active means under 50% inhibition at 10 µM
T3 sequence (P32241 whole entry): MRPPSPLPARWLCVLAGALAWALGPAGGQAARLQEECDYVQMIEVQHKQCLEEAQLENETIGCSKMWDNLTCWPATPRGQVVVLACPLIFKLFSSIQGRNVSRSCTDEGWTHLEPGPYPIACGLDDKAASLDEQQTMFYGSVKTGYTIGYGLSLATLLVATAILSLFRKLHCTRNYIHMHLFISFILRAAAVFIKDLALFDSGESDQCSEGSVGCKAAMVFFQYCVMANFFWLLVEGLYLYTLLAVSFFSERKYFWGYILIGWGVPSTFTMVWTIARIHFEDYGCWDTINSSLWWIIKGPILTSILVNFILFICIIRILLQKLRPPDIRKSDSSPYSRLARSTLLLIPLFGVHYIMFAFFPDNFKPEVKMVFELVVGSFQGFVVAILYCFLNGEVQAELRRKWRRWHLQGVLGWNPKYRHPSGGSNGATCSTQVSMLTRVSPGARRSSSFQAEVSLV

COc1ccc(Cc2nccc3cc(OC)c(OC)cc23)cc1OC [PAPAVERINE]
Not Active: IC50 [1] | Ki [1] | IC50 [2] | IC50 [3] | IC50 [4] | IC50 [5] | IC50 [6] | IC50 [7]

OCCN1CCN(CCCN2c3ccccc3Sc3ccc(Cl)cc32)CC1 [PERPHENAZINE]
Not Active: IC50 [1] | Ki [1] | IC50 [2] | IC50 [3] | IC50 [4] | IC50 [5] | IC50 [6] | IC50 [7]

CCCCC1C(=O)N(c2ccccc2)N(c2ccccc2)C1=O [PHENYLBUTAZONE]
Not Active: IC50 [1] | Ki [1] | IC50 [2] | IC50 [3] | IC50 [4] | IC50 [5] | IC50 [6] | IC50 [7]

Cc1cccc(Nc2cc(Cl)nc(SCC(=O)O)n2)c1C [PIRINIXIC ACID]
Not Active: IC50 [1] | Ki [1] | IC50 [2] | IC50 [3] | IC50 [4] | IC50 [5] | IC50 [6] | IC50 [7]

CC[C@H](C)C(=O)O[C@H]1C[C@H](O)C=C2C=C[C@H](C)[C@H](CC[C@@H](O)C[C@@H](O)CC(=O)O)[C@H]21 [PRAVASTATIN]
Not Active: IC50 [1] | Ki [1] | IC50 [2] | IC50 [3] | IC50 [4] | IC50 [5] | IC50 [6] | IC50 [7]

CC(C)(Sc1cc(C(C)(C)C)c(O)c(C(C)(C)C)c1)Sc1cc(C(C)(C)C)c(O)c(C(C)(C)C)c1 [PROBUCOL]
Not Active: IC50 [1] | Ki [1] | IC50 [2] | IC50 [3] | IC50 [4] | IC50 [5] | IC50 [6] | IC50 [7]

COBALT(II) ACETYLACETONATE
Not Active: IC50 [1] | Ki [1] | IC50 [2] | Ki [2] | IC50 [3] | Ki [3] | IC50 [4] | Ki [4] | IC50 [5] | Ki [5] | IC50 [6] | Ki [6] | IC50 [7] | Ki [7]

INSULIN HUMAN
Not Active: IC50 [1] | Ki [1] | IC50 [2] | Ki [2] | IC50 [3] | Ki [3] | IC50 [4] | Ki [4] | IC50 [5] | Ki [5] | IC50 [6] | Ki [6] | IC50 [7] | Ki [7]

POLYVINYL ALCOHOL
Not Active: IC50 [1] | Ki [1] | IC50 [2] | Ki [2] | IC50 [3] | Ki [3] | IC50 [4] | Ki [4] | IC50 [5] | Ki [5] | IC50 [6] | Ki [6] | IC50 [7] | Ki [7]
